{"source": "patent US20020098552A1", "about": "“Method for producing xanthosine-5'-monophosphate by fermentation using mutant strains of Coryneform bacteria” (priority 2000, published 2002)", "key": {"[1]": {"system": "Corynebacterium ammoniagenes AGRI45-11 (VKPM B-8009)", "assay_type": "cell-based", "conditions": "for Effect on growth of the XMP producer strain: in high concentration, strain AGRI45-11", "method": "(§1) Corynebacterium ammoniagenes AGRI45-11 (VKPM B-8009) was treated with 50 μg/ml of NTG for 20 minutes. Then cells were plated on PYM medium having the composition (g/L): peptone—10.0, yeast extract—10.0, meat extract—5.0, NaCl—2.5, agar—20.0, and containing 40 g/L, or 50 g/L, or 60 g/L glycine. The inoculated plates were incubated at 30° C. for 5 days.\nCorynebacterium ammoniagenes AGRI45-11 (VKPM B-8009) was treated with NTG, and cells were plated on the PYM medium as in Example 1, containing 45 μg/ml, or 50 μg/ml, or 55 μg/ml, or 60 μg/ml polymyxin. The inoculated plates were incubated at 30° C. for 5 days.\n(§2) The parental strain Corynebacterium ammoniagenes AGRI45-11 (VKPM B-8009) was streaked onto PYM medium of Example 1, containing 5, 15, 30 or 50 μg/ml of rifampicin instead of glycine and inoculated plates were incubated at 34° C. for 3 days. The mutants resistant to rifampicin was selected from among spontaneously appeared colonies.\nA series of mutants resistant to 50 or 100 μg/ml oligomycin was selected from the strain Corynebacterium anmoniagenes AGRI45-11 (VKPM B-8009) using the procedure, described in the Example 1, but oligomycin was used instead of glycine.\nCorynebacterium ammoniagenes AGRI45-11 (VKPM B-8009) was treated with NTG, and cells were plated on PYM medium as in Example 1, containing 2, 4 or 6 μg/ml of CCCP instead of glycine. The inoculated plates were incubated at 30° C. for 5 days. […] This strain and the parent strain Corynebacterium ammoniagenes AGRI45-11 (VKPM B-8009) were each cultivated at 32° C. for 20 h with aeration in a seed medium as in the Example 1. Then 0.3 ml of the obtained culture was inoculated into 3 ml of the fermentation medium of the Example 1, in 20×200 mm test tubes, and cultivated at 32° C. for 72 hours with a rotary shaker. After the cultivation, an accumulated amount of XMP in the medium was determined by known method.\nCorynebacterium ammoniagenes AGRI45-11 (VKPM B-8009) was treated with NTG as in Example 1, aliquots were introduced into 20×200 mm test tubes and incubated at 32° C. for 20 h with shaking in minimal medium having the following composition (see below) with a rotary shaker. Then the cells were collected and plated on the minimal medium agar and containing several combinations of the inhibitors:\n(§3) The mutants resistant to the analogue were obtained using the procedure described in Example 6, except for the only combinations of the inhibitors was applied: DL-methionine sulfone-10 mg/ml +DL-methionine-20 mg/ml."}, "[2]": {"system": "Corynebacterium ammoniagenes AGRI93-38 (VKPM B-8003)", "experiment": "Growth of the rifampicin-resistant mutant with rifampicin", "assay_type": "cell-based", "conditions": "mutant strain AGRI93-38", "method": "as §2, with “colonies. Among the mutants the most productive strain Corynebacterium ammoniagenes AGRI93-38 (VKPM B-8003) was selected.” for “colonies.”"}, "[3]": {"system": "Corynebacterium ammoniagenes AGRI67-52 (VKPM B-8004)", "experiment": "Growth of the oligomycin-resistant mutant in the presence of oligomycin", "assay_type": "cell-based", "conditions": "mutant strain AGRI67-52", "method": "A series of mutants resistant to 50 or 100 μg/ml oligomycin was selected from the strain Corynebacterium anmoniagenes AGRI45-11 (VKPM B-8009) using the procedure, described in the Example 1, but oligomycin was used instead of glycine. […] The best mutant, strain Corynebacterium ammoniagenes AGRI67-52 (VKPM B-8004) when tested in parallel as in Example 1 accumulated about 22 % more XMP than the parental strain Corynebacterium ammoniagenes AGRI45-11 (VKPM B-8009) (Table 4 )."}, "[4]": {"system": "Corynebacterium ammoniagenes AGRI97-52 (VKPM B-8008)", "experiment": "Growth of the CCCP-resistant mutant with CCCP", "assay_type": "cell-based", "conditions": "mutant strain AGRI97-52"}, "[5]": {"system": "Gram-positive bacterium Corynebacterium ammoniagenes", "experiment": "Growth inhibition of Corynebacterium ammoniagenes by polymyxin B", "assay_type": "cell-based", "conditions": "high concentrations", "excerpt": "Polymyxin B is a polypeptide antibiotics effective against Gram-negative bacteria. The cell membrane of the bacteria is considered to be the target of the antibiotic. […] The mutations conferring resistance to polymyxin B may affect cytoplasmic membrane and mimic a stress condition, inducing XMP efflux transporter. Therefore the mutants resistant to growth inhibition by the drug were selected."}, "[6]": {"system": "Corynebacterium ammoniagenes AGRI101-51 (VKPM B-8010)", "experiment": "Growth of the polymyxin-resistant mutant in the presence of polymyxin", "assay_type": "cell-based", "conditions": "mutant strain AGRI 101-51"}, "[7]": {"system": "Corynebacterium ammoniagenes AGRI11-51 (VKPM B-8005)", "experiment": "Growth of the methionine sulfoxide-resistant mutant with DL-methionine sulfoxide + DL-methionine", "assay_type": "cell-based", "conditions": "mutant strain AGRI11-51", "method": "Then the cells were collected and plated on the minimal medium agar and containing several combinations of the inhibitors:\nMutants which appeared after 4 to 8 days incubation were picked up and tested for their XMP productivity. Among them the strain Corynebacterium ammoniagenes AGRI11-51 (VKPM B-8005) was selected. This strain and the parent strain Corynebacterium anmoniagenes AGRI45-11 (VKPM B-8009) were each cultivated at 32° C. for 20 h with aeration in a seed medium as in the Example 1. Then 0.3 ml of the obtained culture was inoculated into 3 ml of the fermentation medium of the Example 1, in 20×200 mm test tubes, and cultivated at 32° C. for 72 hours with a rotary shaker. After the cultivation, an accumulated amount of XMP in the medium was determined by known method."}, "[8]": {"system": "Corynebacterium ammoniagenes AGRI47-51 (VKPM B-8007)", "experiment": "Growth of the methionine sulfone-resistant mutant with DL-methionine sulfone + DL-methionine", "assay_type": "cell-based", "conditions": "mutant strain AGRI47-51", "method": "as §3\nAmong the mutants which appeared after 4 to 8 days incubation the strain Corynebacterium ammoniagenes AGRI47-51 (VKPM B-8007) was selected. This strain and the parent strain Corynebacterium ammoniagenes AGRI45-11 (VKPM B-8009) were each cultivated at 32° C. for 20 h with aeration in a seed medium as in the Example 1. Then 0.3 ml of the obtained culture was inoculated into 3 ml of the fermentation medium of the Example 1, in 20×200 mm test tubes, and cultivated at 32° C. for 72 hours with a rotary shaker."}, "[9]": {"system": "Corynebacterium ammoniagenes AGRI10-52 (VKPM B-8006)", "conditions": "mutant strain AGRI10-52", "method": "as §1"}}, "data": [{"compound": "CO[C@H]1/C=C/O[C@@]2(C)Oc3c(C)c(O)c4c(O)c(c(/C=N/N5CCN(C)CC5)c(O)c4c3C2=O)NC(=O)/C(C)=C\\C=C\\[C@H](C)[C@H](O)[C@@H](C)[C@@H](O)[C@@H](C)[C@H](OC(C)=O)[C@@H]1C", "note": "[rifampicin]", "values": [{"measurement": "Growth with 15 μg/ml rifampicin", "setting": "[1]; 15 μg/ml rifampicin, parent strain AGRI45-11", "result": "−"}, {"measurement": "Growth with 15 μg/ml rifampicin", "setting": "[2]", "result": "+"}]}, {"compound": "CC[C@H]1/C=C/C=C/C[C@@H](C)[C@H](O)[C@@](C)(O)C(=O)[C@@H](C)[C@H](O)[C@@H](C)C(=O)[C@@H](C)[C@H](O)[C@@H](C)/C=C/C(=O)O[C@@H]2[C@H](C)[C@H](CC1)O[C@]1(CC[C@H](C)[C@H](C[C@@H](C)O)O1)[C@H]2C", "note": "[oligomycin]", "values": [{"measurement": "Growth in the presence of 100 μg/ml oligomycin", "setting": "[3]", "result": "+"}, {"measurement": "Growth in the presence of 100 μg/ml oligomycin", "setting": "[1]; 100 μg/ml oligomycin, parent strain AGRI45-11", "result": "−"}]}, {"compound": "N#CC(C#N)=NNc1cccc(Cl)c1", "note": "[CCCP, Carbonyl cyanide m-chlorophenyl hydrazone]", "values": [{"measurement": "Growth with 4 μg/ml CCCP", "setting": "[1]; 4 μg/ml CCCP, parent strain AGRI45-11", "result": "−"}, {"measurement": "Growth with 4 μg/ml CCCP", "setting": "[4]", "result": "+"}]}, {"compound": "CSCCC(N)C(=O)O", "note": "(racemic) [DL-methionine]", "values": [{"measurement": "Effect on growth of the XMP producer strain", "setting": "[1]", "result": "inhibited the growth"}]}, {"compound": "Polymyxin B", "values": [{"measurement": "Concentration that inhibited the growth", "setting": "[5]", "result": "40 to 50", "unit": "µg/mL"}, {"measurement": "Growth in the presence of 45 μg/ml polymyxin", "setting": "[1]; 45 μg/ml polymyxin, parent strain AGRI45-11", "result": "−"}, {"measurement": "Growth in the presence of 45 μg/ml polymyxin", "setting": "[6]", "result": "+"}]}, {"compound": "C[S+]([O-])CCC(N)C(=O)O", "note": "(racemic) [DL-methionine sulfoxide]", "values": [{"measurement": "Growth with 10 mg/ml DL-methionine sulfoxide + 20 mg/ml DL-methionine", "setting": "[1]; 10 mg/ml DL-methionine sulfoxide + 20 mg/ml DL-methionine, parent strain AGRI45-11", "result": "−"}, {"measurement": "Effect on growth of the XMP producer strain", "setting": "[1]", "result": "inhibited the growth"}, {"measurement": "Growth with 10 mg/ml DL-methionine sulfoxide + 20 mg/ml DL-methionine", "setting": "[7]", "result": "+"}]}, {"compound": "CS(=O)(=O)CCC(N)C(=O)O", "note": "(racemic) [DL-methionine sulfone]", "values": [{"measurement": "Growth with 10 mg/ml DL-methionine sulfone + 20 mg/ml DL-methionine", "setting": "[1]; 10 mg/ml DL-methionine sulfone + 20 mg/ml DL-methionine, parent strain AGRI45-11", "result": "−"}, {"measurement": "Effect on growth of the XMP producer strain", "setting": "[1]", "result": "inhibited the growth"}, {"measurement": "Growth with 10 mg/ml DL-methionine sulfone + 20 mg/ml DL-methionine", "setting": "[8]", "result": "+"}]}, {"compound": "NCC(=O)O", "note": "[glycine]", "values": [{"measurement": "Growth in the presence of 6% glycine", "setting": "[1]; 6% glycine, parent strain AGRI45-11", "result": "−"}, {"measurement": "Growth in the presence of 6% glycine", "setting": "[9]", "result": "+"}]}]}
